Assay results published in PMC7125863 (Bioorganic & Medicinal Chemistry, 2013).
pKi: −log10 of the molar value.

Key:
[1] = system: human cytomegalovirus (HCMV) strain AD-169; assay: Anti-HCMV assay, strain AD169; assay type: cell-based; conditions: in parentheses
in vitro = conditions: human
[2] = system: human cytomegalovirus (HCMV) strain Davis; assay: Anti-HCMV assay, strain Davis; assay type: cell-based; conditions: in parentheses
[3] = target: wild-type HIV-1 reverse transcriptase (Human immunodeficiency virus type 1 group M subtype B, UniProt P04585); assay: RT enzyme assay, wild-type RT; assay type: biochemical
HIV-1 (IIIB) wild type = assay: Anti-HIV assay in MT-4 cell cultures; conditions: MT-4 cells
HIV-1 RT K103N = HIV-1 RT K103N (Human immunodeficiency virus type 1 group M subtype B, UniProt P04585, K690N); assay: biochemical
HIV-1 RT K103N/Y181C = HIV-1 RT K103N/Y181C (Human immunodeficiency virus type 1 group M subtype B, UniProt P04585, K690N/Y768C); assay: biochemical

Structure (SMILES) | SI [1] | CC50 (in vitro) | SI [2] | other results
Nc1ccn(C[C@@H](CO)OCP(=O)(O)O)c(=O)n1.O.O [Cidofovir, reference compound] | 64 | 63 µM | 63 | –
Cc1ccccc1OCCn1ccc(=O)n(Cc2ccccc2)c1=O [Compound 5, 3-Benzyl-1-[2-(2-methylphenoxy)ethyl]uracil] | – | – | – | pKi [3]: < 4.00
Cc1cccc(OCCn2ccc(=O)n(Cc3ccccc3)c2=O)c1 [Compound 6, 3-Benzyl-1-[2-(3-methylphenoxy)ethyl]uracil] | – | – | – | pKi [3]: < 4.00
Cc1ccc(OCCn2ccc(=O)n(Cc3ccccc3C)c2=O)cc1 [Compound 15, 3-(2-Methylbenzyl)-1-[2-(4-methylphenoxy)ethyl]uracil] | – | – | – | pKi [3]: < 4.00
Cc1ccc(OCCn2ccc(=O)n(Cc3cccc(C)c3)c2=O)cc1 [Compound 16, 3-(3-Methylbenzyl)-1-[2-(4-methylphenoxy)ethyl]uracil] | – | – | – | SI, selectivity index, ratio CC50/IC50 (HIV-1 (IIIB) wild type): ⩾11
Cc1ccc(OCCn2ccc(=O)n(Cc3cc(C)cc(C)c3)c2=O)cc1 [Compound 19, 1-[2-(4-Methylphenoxy)ethyl]-3-(3,5-dimethylbenzyl)uracil] | – | – | – | pKi (HIV-1 RT K103N): < 4.59; pKi (HIV-1 RT K103N/Y181C): < 4.59
Cc1ccc(OCCn2ccc(=O)n(Cc3c(C)cc(C)cc3C)c2=O)cc1 [Compound 20, 1-[2-(4-Methylphenoxy)ethyl]-3-(2,4,6-trimethylbenzyl)-uracil] | – | – | – | pKi [3]: < 4.00
Cc1cc(C)cc(Cn2c(=O)ccn(C/C=C/c3ccccc3)c2=O)c1 [Compound 30, 1-Cinnamyl-3-(3,5-dimethylbenzyl)uracil] | – | – | – | pKi (HIV-1 RT K103N/Y181C): < 4.00
O=c1ccn(C/C=C/c2ccccc2)c(=O)n1Cc1cc(F)cc(F)c1 [Compound 31, 1-Cinnamyl-3-(3,5-difluorobenzyl)uracil] | 1.38 | 51 µM | 1.13 | –
O=c1ccn(C/C=C/c2ccccc2)c(=O)n1Cc1cc(Cl)cc(Cl)c1 [Compound 32, 1-Cinnamyl-3-(3,5-dichlorobenzyl)uracil] | 11 | ≥ 100 µM | 9 | pKi (HIV-1 RT K103N/Y181C): < 4.00
O=c1ccn(C/C=C/c2ccccc2)c(=O)n1Cc1cc(Br)cc(Br)c1 [Compound 33, 1-Cinnamyl-3-(3,5-dibromobenzyl)uracil] | – | – | – | pKi (HIV-1 RT K103N/Y181C): < 4.00
Cc1cc(Br)cc(Cn2c(=O)ccn(C/C=C/c3ccccc3)c2=O)c1 [Compound 34, 3-(3-Bromo-5-methylbenzyl)-1-cinnamyluracil] | 6 | ≥ 100 µM | 5 | –
O=c1ccn(C/C=C/c2ccccc2)c(=O)n1Cc1cccc2ccccc12 [Compound 35, 1-Cinnamyl-3-(1-naphthylmethyl)uracil] | 7 | ≥ 100 µM | 16 | –
Nc1nc2c(ncn2COC(CO)CO)c(=O)[nH]1 [Ganciclovir, reference compound] | 21 | 132 µM | 23 | –
